The first data set is described as follows: Log P by HPLC on reversed phase columns (EEC directive 79/831 Annex V.A8). Type of data set: physicochemical.
Settings: not given
As for the experimental part:
Measurement of Log P values was performed according to EEC directive 79/831 Annex V.A8 by HPLC (High Performance Liquid Chromatography) on reversed phase columns with the following methods: • ^[a]
If more than one Log P value is available within the same method, all the values are given and separated by “+”.
Lambda-max-values were determined using UV-spectra from 200 nm to 400 nm and the peak values of the chromatographic signals.
With `OC(Cc1cccnc1Cl)(Cn1cncn1)c1ccccc1` (stereo not shown) [Example I-51], the LogP is 1.61^[a]. On the same count and under the same terms, as for `OC(Cc1ccncc1Cl)(Cn1cncn1)c1ccc(F)cc1` (stereo not shown) [Example I-18], the figure is 1.57^[a]. Still for that read-out and setting: as for `OC(Cc1ccncc1Cl)(Cn1cncn1)c1ccc(Oc2ccccc2)cc1` (stereo not shown) [Example I-01], the figure is 2.46^[a]. Same read-out and setting: as for `OC(Cc1ccncc1F)(Cn1cncn1)c1ccc(Cl)cc1Cl` (stereo not shown) [Example I-53], the figure is 2.00^[a].

As to `OC(Cc1ccncc1Cl)(Cn1cncn1)c1ccc(Cl)cc1Cl` (stereo not shown) [Example I-42], the LogP was 2.38^[a]. On the same count and under the same terms, as for `N#Cc1ccc(C(O)(Cc2cccnc2Cl)Cn2cncn2)cc1` (stereo not shown) [Example I-35], the figure is 1.47^[a]; as for `OC(Cc1ccnc(Cl)c1F)(Cn1cncn1)c1ccccc1` (stereo not shown) [Example I-49], 1.84^[a]; as for `OC(Cc1ccncc1Cl)(Cn1cncn1)c1ccc(F)cc1F` (stereo not shown) [Example I-30], 1.76^[a]. The compound `Fc1cc(Cl)ccc1C1(Cc2cccnc2Cl)CO1` (stereo not shown) [XII-1, 2-chloro-3-[[2-(4-chloro-2-fluoro-phenyl)oxiran-2-yl]methyl]pyridine] returned a chromatographic logP of 3.31. Same read-out and setting: the figure for `OC(Cc1ccnc(Cl)c1F)(Cn1cncn1)c1ccc(F)cc1F` (stereo not shown) [Example I-08, 1-(2-chloro-3-fluoro-4-pyridyl)-2-(2,4-difluorophenyl)-3-(1,2,4-triazol-1-yl)propan-2-ol] is 2.14.

For the compound `OC(Cc1ccnc(Cl)c1F)(Cn1cncn1)c1ccc(Cl)cc1Cl` (stereo not shown) [Example I-09], the LogP is 2.69^[a]. On the same count and under the same terms, as for `OC(Cc1ccncc1Cl)(Cn1cncn1)c1ccc(Cl)cc1` (stereo not shown) [Example I-11], the figure is 1.86^[a]; as for `OC(Cc1ccnc(Cl)c1F)(Cn1cncn1)c1ccc(F)cc1F` (single isomer, unassigned) [Example I-56], 2.21^[a]. The same measure, in the same setting: the figure for `OC(Cc1ccnc(Cl)c1F)(Cn1cncn1)c1ccc(F)cc1` (stereo not shown) [Example I-23] is 1.91^[a]; for `OC(Cc1cc(F)ncc1Cl)(Cn1cncn1)c1ccc(Cl)cc1` (stereo not shown) [Example I-28] it is 2.43^[a]. Same read-out and setting: the figure for `OC(Cc1ccnc(Cl)c1)(Cn1cncn1)c1ccc(F)cc1F` (stereo not shown) [Example I-44] is 1.86^[a].

With `OC(Cc1ccncc1F)(Cn1cncn1)c1ccc(Cl)cc1` (stereo not shown) [Example I-31], the LogP is 1.54^[a]. With `OC(Cc1ccnc(Cl)c1)(Cn1cncn1)c1ccc(Cl)cc1Cl` (stereo not shown) [Example I-50], the LogP is 2.42^[a]. On the same count and under the same terms, as for `OC(Cc1ccncc1F)(Cn1cncn1)c1ccc(F)cc1F` (stereo not shown) [Example I-43], the figure is 1.47^[a]; as for `CC(C)(C)c1noc(-c2ccc(C(O)(Cc3ccncc3Cl)Cn3cncn3)cc2)n1` (stereo not shown) [Example I-38], 2.65^[a].

The same data set, now with this note: Table 1, formula (I); method [a]: LC-UV, acidic range, 0.1% formic acid in water and acetonitrile.
For the compound `OC(Cc1ccncc1Cl)(Cn1cncn1)c1ccc(-c2ccccc2)cc1` (stereo not shown) [Example I-02], the LogP is 2.46^[a].

Staying with this data set, now noted: Table 2, epoxides of formula (XII); method [a]: LC-UV, acidic range, 0.1% formic acid in water and acetonitrile.
As to `Clc1cncc(Cl)c1CC1(c2ccc(Oc3ccccc3)cc2)CO1` (racemic) [XII-51], the LogP is 4.76^[a]. With `Fc1ccc(Oc2ccc(C3(Cc4ccncc4Cl)CO3)cc2)c(F)c1` (stereo not shown) [XII-33], the LogP is 3.80^[a]. Still for that read-out and setting: as for `Fc1ccc(C2(Cc3cc(Cl)ncc3F)CO2)c(F)c1` (stereo not shown) [XII-20], the figure is 3.24^[a]. Turning to `Fc1cnccc1CC1(c2ccc(Cl)cc2)CO1` (stereo not shown) [XII-2], the LogP is 2.65^[a]. The same measure, in the same setting: as for `Clc1ccccc1C1(Cc2c(Cl)cncc2Cl)CO1` (racemic) [XII-59], the figure is 4.04^[a]; as for `Fc1ccc(Oc2ccc(C3(Cc4cc(Cl)ncc4F)CO3)cc2)c(F)c1` (stereo not shown) [XII-21], 4.17^[a]. Still for that read-out and setting: as for `Fc1ccc(C2(Cc3cc(Cl)ncc3F)CO2)cc1` (stereo not shown) [XII-16], the figure is 3.15^[a]; as for `Fc1ccc(Oc2ccc(C3(Cc4ccncc4F)CO3)cc2)c(F)c1` (stereo not shown) [XII-5], 3.37^[a]; as for `Clc1cccc(C2(Cc3cccnc3Cl)CO2)c1` (stereo not shown) [XII-23], 3.24^[a]. Same read-out and setting: as for `Clc1ccc(C2(Cc3cccnc3Cl)CO2)cc1` (stereo not shown) [XII-24], the figure is 3.25^[a].

As for `Fc1cc(CC2(c3ccc(-c4ccccc4)cc3)CO2)c(Cl)cn1` (racemic) [XII-42], the LogP was 4.64^[a]. With `Fc1cc(CC2(c3ccc(Oc4ccccc4)cc3)CO2)c(Cl)cn1` (racemic) [XII-40], the LogP was 4.57^[a]. Same read-out and setting: the figure for `Fc1cnc(Cl)cc1CC1(c2ccc(Cl)cc2Cl)CO1` (stereo not shown) [XII-19] is 4.17^[a]. Still for that read-out and setting: as for `Fc1ccc(C2(Cc3c(Cl)cncc3Cl)CO2)cc1` (racemic) [XII-56], the figure is 3.58^[a]; as for `Clc1ccccc1COc1ccc(C2(Cc3ccncc3Cl)CO2)cc1` (racemic) [XII-64], 4.30^[a]; as for `Fc1ccc(C2(Cc3cc(F)ncc3Cl)CO2)c(F)c1` (racemic) [XII-35], 3.46^[a].

Regarding `Fc1ccc(C2(Cc3ccnc(Cl)c3F)CO2)c(F)c1` (racemic) [XII-47], the LogP is 3.26^[a]. For the compound `Clc1cnccc1CC1(c2c(Cl)cccc2Cl)CO1` (racemic) [XII-62], the LogP is 3.02^[a]. On the same count and under the same terms, the figure for `FC(F)(F)c1ccc(C2(Cc3cccnc3Cl)CO2)cc1` (stereo not shown) [XII-25] is 3.46^[a]; for `Fc1cccc(F)c1C1(Cc2ccncc2Cl)CO1` (stereo not shown) [XII-66] it is 2.50^[a]; for `Fc1cnccc1CC1(c2ccc(-c3ccccc3)cc2)CO1` (stereo not shown) [XII-8] it is 3.37^[a]. The same measure, in the same setting: as for `Fc1cc(CC2(c3ccc(Cl)cc3Cl)CO2)c(Cl)cn1` (racemic) [XII-36], the figure is 4.45^[a]; as for `Fc1ccc(Oc2ccc(C3(Cc4cc(F)ncc4Cl)CO3)cc2)c(F)c1` (racemic) [XII-41], 4.51^[a]; as for `CC(C)(C)c1noc(-c2ccc(C3(Cc4ccncc4Cl)CO3)cc2)n1` (stereo not shown) [XII-65], 4.25^[a]. Regarding `Clc1cnccc1CC1(c2cccc(Cl)c2Cl)CO1` (racemic) [XII-61], the LogP was 3.53^[a]. The same measure, in the same setting: the figure for `Cc1cc(C)c(C2(Cc3ccncc3Cl)CO2)c(C)c1` (racemic) [XII-60] is 4.15^[a]. Still for that read-out and setting: as for `Clc1cnccc1CC1(c2ccc(-c3ccccc3)cc2)CO1` (stereo not shown) [XII-28], the figure is 3.85^[a]; as for `Fc1ccc(C2(Cc3ccncc3Cl)CO2)cc1` (stereo not shown) [XII-27], 2.65^[a]. Still for that read-out and setting: as for `N#Cc1ccc(C2(Cc3cccnc3Cl)CO2)cc1` (stereo not shown) [XII-26], the figure is 2.35^[a]. Regarding `Fc1ccc(C2(Cc3ccncc3Cl)CO2)c(F)c1` (stereo not shown) [XII-34], the LogP was 2.76^[a]. Same read-out and setting: as for `Clc1ccc(C2(Cc3c(Cl)cncc3Cl)CO2)c(Cl)c1` (racemic) [XII-54], the figure is 4.76^[a].

Regarding `Fc1ccc(C2(Cc3ccncc3F)CO2)cc1` (stereo not shown) [XII-4], the LogP was 2.23^[a].

Consider `Clc1ccccc1COc1cccc(C2(Cc3ccncc3Cl)CO2)c1` (racemic) [XII-63], for which the LogP was 4.30^[a].

In the case of `Clc1cncc(Cl)c1CC1(c2ccc(-c3ccccc3)cc2)CO1` (racemic) [XII-53], the LogP was 4.89^[a].

The chromatographic logP is a lipophilicity value derived from retention on a column.
